Source: patent publication US10562891B2, “Quinazolinones as PARP14 inhibitors” (Ribon Therapeutics Inc., priority 2017, dated 2020)
Structures can show the parent of a compound that is named as a salt.

Biological target: catalytic domain of human PARP14 (Homo sapiens (Human), UniProt Q460N5)
Assay: Enzymatic assay for inhibition of PARP14 (DELFIA, auto-modification with biotin-NAD)
Type: biochemical
Details: auto-modification of PARP14 by biotin-NAD, 50 nM PARP14, 3 μM biotin-NAD
Procedure, shortened: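 His-TEV-tagged PARP14 catalytic domain (50 nM) preincubated with compound 30 min at 25 °C, then auto-modified with 3 μM biotin-NAD for 3 h at 25 °C in HEPES pH 8 buffer with DTT. IC50 from 4-parameter fit, rucaparib and DMSO as controls.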

Sequence of catalytic domain of human PARP14 (Q460N5 1611-1801): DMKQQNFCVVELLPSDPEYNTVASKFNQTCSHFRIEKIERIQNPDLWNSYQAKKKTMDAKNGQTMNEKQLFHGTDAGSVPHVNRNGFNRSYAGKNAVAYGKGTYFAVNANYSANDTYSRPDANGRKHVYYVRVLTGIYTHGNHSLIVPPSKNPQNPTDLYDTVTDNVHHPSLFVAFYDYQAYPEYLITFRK

IC50	SMILES
< 1000 nM	N#CCN1CCC(SCc2nc3cc(NC4CCCC4)cc(F)c3c(=O)[nH]2)CC1 [Example 285, 2-(4-(((7-(Cyclopentylamino)-5-fluoro-4-oxo-3,4-dihydroquinazolin-2-yl)methyl)thio)piperidin-1-yl)acetonitrile]
< 1000 nM	O=c1[nH]c(CSC2CCOCC2)nc2cc(NCCN3CCOCC3)cc(F)c12 [Example 287, 5-Fluoro-7-((2-morpholinoethyl)amino)-2-(((tetrahydro-2H-pyran-4-yl)thio)methyl)quinazolin-4(3H)-one]
< 1000 nM	O=c1[nH]c(CSC2CCOCC2)nc2cc(NC3CCN(CC(F)(F)F)CC3)cc(F)c12 [Example 288, 5-Fluoro-2-(((tetrahydro-2H-pyran-4-yl)thio)methyl)-7-((1-(2,2,2-trifluoroethyl)piperidin-4-yl)amino)quinazolin-4(3H)-one]
< 1000 nM	O=c1[nH]c(CSC2CCOCC2)nc2cc(NC3CCCCC3)c(F)cc12 [Example 290, 7-(Cyclohexylamino)-6-fluoro-2-(((tetrahydro-2H-pyran-4-yl)thio)methyl)quinazolin-4(3H)-one]
< 1000 nM	O=c1[nH]c(CSC2CCOCC2)nc2cc(OCC3CC3)cc(F)c12 [Example 291, 7-(Cyclopropylmethoxy)-5-fluoro-2-(((tetrahydro-2H-pyran-4-yl)thio)methyl)quinazolin-4(3H)-one]
< 1000 nM	O=c1[nH]c(CSC2CCOCC2)nc2cc(NCC3CC3)c(F)cc12 [Example 292, 7-((Cyclopropylmethyl)amino)-6-fluoro-2-(((tetrahydro-2H-pyran-4-yl)thio)methyl)quinazolin-4(3H)-one]
< 1000 nM	O=c1[nH]c(CS[C@H]2CC[C@H](O)CC2)nc2cc(NC3CCCC3)c(F)cc12 [Example 293, 7-(Cyclopentylamino)-6-fluoro-2-(((trans-4-hydroxycyclohexyl)thio)methyl)quinazolin-4(3H)-one]
< 1000 nM	O=c1[nH]c(CSC2CCOCC2)nc2cc(NC3CCCC3)c(F)c(F)c12 [Example 294, 7-(Cyclopentylamino)-5,6-difluoro-2-(((tetrahydro-2H-pyran-4-yl)thio)methyl)quinazolin-4(3H)-one]
< 1000 nM	O=c1[nH]c(CSC2CCS(=O)(=O)CC2)nc2cc(NCC3CCC3)c(F)cc12 [Example 296, 7-((Cyclobutylmethyl)amino)-2-(((1,1-dioxidotetrahydro-2H-thiopyran-4-yl)thio)methyl)-6-fluoroquinazolin-4(3H)-one]
< 1000 nM	O=c1[nH]c(CSC2CCOCC2)nc2cc(OCC3CCN(CCC(F)(F)F)CC3)cc(F)c12 [Example 298, 5-Fluoro-2-(((tetrahydro-2H-pyran-4-yl)thio)methyl)-7-((1-(3,3,3-trifluoropropyl)piperidin-4-yl)methoxy)quinazolin-4(3H)-one]
< 1000 nM	CC(F)(F)CN1CCC(COc2cc(F)c3c(=O)[nH]c(CSC4CCOCC4)nc3c2)CC1 [Example 299, 7-((1-(2,2-Difluoropropyl)piperidin-4-yl)methoxy)-5-fluoro-2-(((tetrahydro-2H-pyran-4-yl)thio)methyl)quinazolin-4(3H)-one]
< 1000 nM	O=c1[nH]c(CSC2CCOCC2)nc2cc(OCC3CCN(CC(F)F)CC3)cc(F)c12 [Example 300, 7-((1-(2,2-Difluoroethyl)piperidin-4-yl)methoxy)-5-fluoro-2-(((tetrahydro-2H-pyran-4-yl)thio)methyl)quinazolin-4(3H)-one]
< 1000 nM	O=c1[nH]c(CSC2CCOCC2)nc2cc(OCC3CCN(C4COC4)CC3)cc(F)c12 [Example 301, 5-Fluoro-7-((1-(oxetan-3-yl)piperidin-4-yl)methoxy)-2-(((tetrahydro-2H-pyran-4-yl)thio)methyl)quinazolin-4(3H)-one]
< 1000 nM	O=c1[nH]c(CSC2CCOCC2)nc2cc(NC3CCN(C4COC4)CC3)cc(F)c12 [Example 302, 5-Fluoro-7-((1-(oxetan-3-yl)piperidin-4-yl)amino)-2-(((tetrahydro-2H-pyran-4-yl)thio)methyl)quinazolin-4(3H)-one]
< 1000 nM	O=c1[nH]c(CSC2CCS(=O)(=O)CC2)nc2cc(OCC3CCC3)cc(F)c12 [Example 304, 7-(cyclobutylmethoxy)-2-(((1,1-dioxidotetrahydro-2H-thiopyran-4-yl)thio)methyl)-5-fluoroquinazolin-4(3H)-one]
< 1000 nM	O=C(CO)N1CCC(SCc2nc3cc(OCC4CCC4)cc(F)c3c(=O)[nH]2)CC1 [Example 307, 7-(Cyclobutylmethoxy)-5-fluoro-2-(((1-(2-hydroxyacetyl)piperidin-4-yl)thio)methyl)quinazolin-4(3H)-one]
< 1000 nM	CC1(C)CC(SCc2nc3cc(OCC4CCC4)cc(F)c3c(=O)[nH]2)CCO1 (centres unmarked) [Example 308, 7-(Cyclobutylmethoxy)-2-(((2,2-dimethyltetrahydro-2H-pyran-4-yl)thio)methyl)-5-fluoroquinazolin-4(3H)-one]
< 1000 nM	O=c1[nH]c(CSC2CCCCC2)nc2cc(NC3CCCC3)c(F)c(F)c12 [Example 310, 2-((Cyclohexylthio)methyl)-7-(cyclopentylamino)-5,6-difluoroquinazolin-4(3H)-one]
1000 to 10000 nM	NC(=O)[C@H]1CC[C@H](SCc2nc3cc(OCC4CCC4)cc(F)c3c(=O)[nH]2)CC1 [Example 311, Trans-4-(((7-(cyclobutylmethoxy)-5-fluoro-4-oxo-3,4-dihydroquinazolin-2-yl)methyl)thio)cyclohexane-1-carboxamide]
< 1000 nM	O=c1[nH]c(CSC2CCOCC2)nc2cc(OCC3CCCN(CC(F)F)C3)cc(F)c12 (centres unmarked) [Example 312, 7-((1-(2,2-Difluoroethyl)piperidin-3-yl)methoxy)-5-fluoro-2-(((tetrahydro-2H-pyran-4-yl)thio)methyl)quinazolin-4(3H)-one]
< 1000 nM	O=c1[nH]c(CS[C@H]2CC[C@H](O)CC2)nc2cc(NC3CCCC3)c(F)c(F)c12 [Example 313, 7-(Cyclopentylamino)-5,6-difluoro-2-(((trans-4-hydroxycyclohexyl)thio)methyl)quinazolin-4(3H)-one]
< 1000 nM	O=c1[nH]c(CS[C@H]2CC[C@H](O)CC2)nc2cc(OCC3CCCC3)cc(F)c12 [Example 314, 7-(Cyclopentylmethoxy)-5-fluoro-2-(((trans-4-hydroxycyclohexyl)thio)methyl)quinazolin-4(3H)-one]

SMILES	IC50
NC(=O)C[C@H]1CC[C@H](SCc2nc3cc(NC4CCCC4)cc(F)c3c(=O)[nH]2)CC1 [Example 286, 2-(Trans-4-(((7-(cyclopentylamino)-5-fluoro-4-oxo-3,4-dihydroquinazolin-2-yl)methyl)thio)cyclohexyl)acetamide]	< 1000 nM
O=c1[nH]c(CSC2CCNCC2)nc2cc(NCC3CCC3)c(F)cc12 [Example 289, 7-((Cyclobutylmethyl)amino)-6-fluoro-2-((piperidin-4-ylthio)methyl)quinazolin-4(3H)-one hydrochloride]	1000 to 10000 nM
CC(C)COc1cc(F)c2c(=O)[nH]c(CSC3CCOCC3)nc2c1 [Example 306, 5-Fluoro-7-isobutoxy-2-(((tetrahydro-2H-pyran-4-yl)thio)methyl)quinazolin-4(3H)-one]	1000 to 10000 nM
O=c1[nH]c(CSC2CCCCC2)nc2cc(OCC3CCC3)cc(F)c12 [Example 309, 7-(Cyclobutylmethoxy)-2-((cyclohexylthio)methyl)-5-fluoroquinazolin-4(3H)-one]	< 1000 nM
